The text below walks through data of ChEMBL document CHEMBL6109038, “Discovery of potent dihydro-oxazinoquinolinone inhibitors of GuaB for the treatment of tuberculosis” (Bioorg Med Chem Lett, 2025).

The term MIC denotes the smallest concentration in the dilution series that meets the test's criterion for growth inhibition. The term IC50 denotes the concentration needed to halve the response being measured. As usually defined, the clearance is a measure of how efficiently the substance is removed, as volume per time. High values mean a high capacity for elimination, low ones a low capacity for elimination. For orientation: logD means lipophilicity at a set pH, counting ionised and neutral species. Low values mean lower lipophilicity, high ones higher lipophilicity. The inhibition is the share of the control response that was lost under treatment. Read a high inhibition as strong suppression. What is called bioavailability is the share of a dose that reaches the circulation, judged against a reference dose that is usually intravenous. Low values mean poor availability, high ones good availability.

Data set [1] has as its system Mycobacterium tuberculosis. The data set is described as follows: Antitubercular activity against Mycobacterium tuberculosis assessed as inhibition of bacterial growth. The data set is classed as functional.
Data set [2] deals with Mycobacterium tuberculosis. Nature of the data set: Antitubercular activity against Mycobacterium tuberculosis H37RvMA assessed as inhibition of bacterial growth by Alamar blue dye based broth microdilution method. The data set is classed as functional. On the technique in general: Resazurin is reduced to fluorescent resorufin, in cell work by metabolically active cells.
The subject of data set [3] is Mycobacterium tuberculosis. Nature of the data set: Antitubercular activity against Mycobacterium tuberculosis H37Ra assessed as inhibition of bacterial growth. The data set is classed as functional.
Data set [4] in a line: Clearance in human liver microsomes. The data set is classed as ADME, Microsome. In general terms: Liver microsomes are a subcellular fraction often used to study metabolism.
The target in data set [5] is T1, Cytochrome P450 3A4 (Homo sapiens, UniProt P08684). Nature of the data set: Inhibition of CYP3A4 (unknown origin) using testosterone as substrate. The data set is classed as ADME.
T1 sequence (P08684 whole entry): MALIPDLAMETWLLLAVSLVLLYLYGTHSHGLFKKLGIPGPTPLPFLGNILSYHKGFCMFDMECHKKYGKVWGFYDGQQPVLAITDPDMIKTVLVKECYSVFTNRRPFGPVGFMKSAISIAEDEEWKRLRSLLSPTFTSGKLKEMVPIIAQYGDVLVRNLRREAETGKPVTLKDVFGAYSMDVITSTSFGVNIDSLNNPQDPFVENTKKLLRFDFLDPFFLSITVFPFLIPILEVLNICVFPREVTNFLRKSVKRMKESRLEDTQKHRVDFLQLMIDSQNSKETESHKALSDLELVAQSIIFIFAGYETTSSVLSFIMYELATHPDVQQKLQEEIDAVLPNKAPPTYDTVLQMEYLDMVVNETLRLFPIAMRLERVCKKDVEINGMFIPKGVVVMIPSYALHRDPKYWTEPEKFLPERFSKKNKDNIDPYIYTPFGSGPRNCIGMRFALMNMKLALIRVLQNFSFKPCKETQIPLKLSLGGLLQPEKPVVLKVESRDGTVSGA
Data set [6] in a line: Clearance in mouse. As to conditions: in vivo. The data set is classed as ADME, organism-based.
The target in data set [7] is T1, Cytochrome P450 3A4. The data set is described as follows: Inhibition of CYP3A4 (unknown origin). The data set is classed as ADME.
The target in the next data set is T2, Cytochrome P450 1A2 (Homo sapiens, UniProt P05177).
T2 sequence (P05177 whole entry): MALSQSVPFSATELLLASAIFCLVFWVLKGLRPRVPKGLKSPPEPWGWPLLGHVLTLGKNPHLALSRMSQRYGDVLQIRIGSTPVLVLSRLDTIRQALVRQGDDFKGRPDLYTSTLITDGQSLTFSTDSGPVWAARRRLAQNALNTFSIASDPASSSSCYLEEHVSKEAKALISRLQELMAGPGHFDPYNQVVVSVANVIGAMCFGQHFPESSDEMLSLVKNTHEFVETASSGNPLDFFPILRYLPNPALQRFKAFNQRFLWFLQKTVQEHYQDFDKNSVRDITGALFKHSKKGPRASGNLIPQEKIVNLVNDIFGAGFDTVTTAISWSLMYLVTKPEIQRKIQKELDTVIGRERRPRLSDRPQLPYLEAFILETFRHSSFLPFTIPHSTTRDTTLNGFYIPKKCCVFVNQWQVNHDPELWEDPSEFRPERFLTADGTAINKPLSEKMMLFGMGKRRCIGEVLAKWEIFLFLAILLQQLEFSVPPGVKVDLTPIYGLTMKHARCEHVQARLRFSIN
Nature of the data set: Inhibition of CYP1A2 (unknown origin). The data set is classed as ADME.

For a further data set, the target named is T3, Cytochrome P450 2C8 (Homo sapiens, UniProt P10632).
T3 sequence (P10632 whole entry): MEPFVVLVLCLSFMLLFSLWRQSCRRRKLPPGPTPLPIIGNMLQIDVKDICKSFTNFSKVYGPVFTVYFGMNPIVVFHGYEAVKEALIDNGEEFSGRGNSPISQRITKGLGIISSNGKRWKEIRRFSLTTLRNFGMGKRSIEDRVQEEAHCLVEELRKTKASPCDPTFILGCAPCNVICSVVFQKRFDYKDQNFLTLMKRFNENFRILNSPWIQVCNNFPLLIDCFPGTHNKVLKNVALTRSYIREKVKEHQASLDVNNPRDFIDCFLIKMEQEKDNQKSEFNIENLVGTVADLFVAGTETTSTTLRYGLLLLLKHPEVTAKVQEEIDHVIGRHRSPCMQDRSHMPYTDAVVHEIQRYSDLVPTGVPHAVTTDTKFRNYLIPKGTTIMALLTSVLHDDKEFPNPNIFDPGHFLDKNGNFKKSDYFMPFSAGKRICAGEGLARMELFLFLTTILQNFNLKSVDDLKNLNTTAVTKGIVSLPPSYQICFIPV
The data set is described as follows: Inhibition of CYP2C8 (unknown origin). The data set is classed as ADME.

A further data set concerns the target Cytochrome P450 2D6 (Homo sapiens, UniProt P10635). Nature of the data set: Inhibition of CYP2D6 (unknown origin). The data set is classed as ADME.
Data set [8] is described as follows: Lipophilicity, logD of the compound measured at pH 7.4. The data set is classed as physicochemical. As to conditions: buffer.
Another data set has as its target hERG (Homo sapiens, UniProt Q12809). The data set is described as follows: Inhibition of hERG at 10 uM relative to control. The data set is classed as toxicity.
Data set [9] can be described thus: Oral bioavailability in mouse. The data set is classed as ADME, organism-based. As to conditions: in vivo.
Data set [10] concerns the target Inosine-5'-monophosphate dehydrogenase (Mycobacterium tuberculosis (strain ATCC 25618 / H37Rv), UniProt P9WKI7). The data set is described as follows: Inhibition of Mycobacterium tuberculosis GuaB.
The next data set concerns IMPDH. Nature of the data set: Inhibition of human IMPDH. The data set is classed as toxicity.
Data set [11] is described as follows: Cytotoxicity against human primary hepatocytes in presence of serum. The data set is classed as toxicity, cell-based, Hepatocyte.
Data set [12] is described as follows: Cytotoxicity against human primary hepatocytes in absence of serum. The data set is classed as toxicity, cell-based, Hepatocyte.
Data set [13] deals with Mycobacterium tuberculosis. Nature of the data set: Antitubercular activity against Mycobacterium tuberculosis H37Rv assessed as inhibition of bacterial growth. The data set is classed as functional.
In the next data set the target is Cytochrome P450 2C9 (Homo sapiens, UniProt P11712). The data set is described as follows: Inhibition of CYP2C9 (unknown origin). The data set is classed as ADME.
Cytochrome P450 2C9, sequence (P11712 whole entry): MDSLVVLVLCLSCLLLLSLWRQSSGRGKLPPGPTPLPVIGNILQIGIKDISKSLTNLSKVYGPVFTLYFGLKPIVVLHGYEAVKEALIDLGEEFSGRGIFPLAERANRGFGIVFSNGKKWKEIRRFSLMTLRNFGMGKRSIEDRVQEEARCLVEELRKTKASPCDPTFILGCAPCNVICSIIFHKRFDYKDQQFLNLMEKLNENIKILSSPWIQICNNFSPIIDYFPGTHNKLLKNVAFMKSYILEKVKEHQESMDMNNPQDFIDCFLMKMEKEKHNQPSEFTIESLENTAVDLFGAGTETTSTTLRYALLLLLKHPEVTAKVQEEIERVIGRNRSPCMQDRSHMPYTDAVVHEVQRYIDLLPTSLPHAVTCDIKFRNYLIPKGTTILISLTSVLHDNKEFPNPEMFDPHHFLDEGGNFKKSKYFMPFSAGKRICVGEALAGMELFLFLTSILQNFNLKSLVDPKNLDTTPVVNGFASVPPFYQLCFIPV
In data set [14] the test system is Mycobacterium tuberculosis. The data set is described as follows: Antitubercular activity against Mycobacterium tuberculosis ATCC 27294 assessed as inhibition of bacterial growth measured after 1 week by broth microdilution method. The data set is classed as functional. As to conditions: ATCC 27294, 168 h, time 1 weeks. (Dilution methods test growth across graded concentrations, often in twofold steps.)

Values after ≈ are worked out from the molar mass of the structure shown.

hERG, sequence (Q12809 whole entry): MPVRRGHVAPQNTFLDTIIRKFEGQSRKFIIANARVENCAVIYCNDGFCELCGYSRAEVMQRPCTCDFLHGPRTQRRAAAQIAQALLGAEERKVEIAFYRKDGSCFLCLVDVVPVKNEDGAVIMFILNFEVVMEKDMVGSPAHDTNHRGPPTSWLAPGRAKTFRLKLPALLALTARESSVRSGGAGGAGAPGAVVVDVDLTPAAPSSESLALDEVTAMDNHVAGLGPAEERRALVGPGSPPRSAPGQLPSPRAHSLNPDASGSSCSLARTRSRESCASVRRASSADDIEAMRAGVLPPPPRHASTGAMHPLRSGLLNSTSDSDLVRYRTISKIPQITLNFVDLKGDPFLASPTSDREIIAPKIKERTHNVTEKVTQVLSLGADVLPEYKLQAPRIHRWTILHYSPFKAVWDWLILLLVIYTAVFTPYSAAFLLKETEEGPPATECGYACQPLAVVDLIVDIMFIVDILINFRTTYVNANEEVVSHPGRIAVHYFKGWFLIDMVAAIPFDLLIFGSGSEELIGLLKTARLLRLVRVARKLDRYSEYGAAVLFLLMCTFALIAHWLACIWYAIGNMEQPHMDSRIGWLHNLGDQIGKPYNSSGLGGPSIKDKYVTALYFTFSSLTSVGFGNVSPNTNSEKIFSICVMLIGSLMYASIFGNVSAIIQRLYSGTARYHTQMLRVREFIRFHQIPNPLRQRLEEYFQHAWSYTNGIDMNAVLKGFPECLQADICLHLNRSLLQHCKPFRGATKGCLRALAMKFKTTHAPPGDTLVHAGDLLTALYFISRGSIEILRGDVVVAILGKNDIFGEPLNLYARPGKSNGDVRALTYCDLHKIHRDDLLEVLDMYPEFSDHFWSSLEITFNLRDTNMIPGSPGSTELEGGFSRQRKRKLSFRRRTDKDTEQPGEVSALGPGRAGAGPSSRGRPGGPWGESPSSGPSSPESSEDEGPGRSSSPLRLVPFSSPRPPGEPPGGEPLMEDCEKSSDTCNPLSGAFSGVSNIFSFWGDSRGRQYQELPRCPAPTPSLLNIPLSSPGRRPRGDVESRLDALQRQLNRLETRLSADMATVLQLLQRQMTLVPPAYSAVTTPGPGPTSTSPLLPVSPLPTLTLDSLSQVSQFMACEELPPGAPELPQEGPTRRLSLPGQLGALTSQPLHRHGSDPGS
Cytochrome P450 2D6, sequence (P10635 whole entry): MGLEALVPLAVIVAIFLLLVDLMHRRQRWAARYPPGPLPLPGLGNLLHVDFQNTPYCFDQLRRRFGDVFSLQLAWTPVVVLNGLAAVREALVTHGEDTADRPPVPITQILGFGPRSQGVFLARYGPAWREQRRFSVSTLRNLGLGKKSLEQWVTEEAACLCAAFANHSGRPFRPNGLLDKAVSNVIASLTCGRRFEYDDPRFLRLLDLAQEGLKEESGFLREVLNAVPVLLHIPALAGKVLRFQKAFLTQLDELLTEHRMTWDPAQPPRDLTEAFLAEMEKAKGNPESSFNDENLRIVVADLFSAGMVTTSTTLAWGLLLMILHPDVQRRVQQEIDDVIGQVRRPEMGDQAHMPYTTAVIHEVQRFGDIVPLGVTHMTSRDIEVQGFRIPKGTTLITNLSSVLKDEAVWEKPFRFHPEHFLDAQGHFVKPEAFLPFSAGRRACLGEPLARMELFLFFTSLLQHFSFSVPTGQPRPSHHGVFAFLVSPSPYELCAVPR
Inosine-5'-monophosphate dehydrogenase, sequence (P9WKI7 whole entry): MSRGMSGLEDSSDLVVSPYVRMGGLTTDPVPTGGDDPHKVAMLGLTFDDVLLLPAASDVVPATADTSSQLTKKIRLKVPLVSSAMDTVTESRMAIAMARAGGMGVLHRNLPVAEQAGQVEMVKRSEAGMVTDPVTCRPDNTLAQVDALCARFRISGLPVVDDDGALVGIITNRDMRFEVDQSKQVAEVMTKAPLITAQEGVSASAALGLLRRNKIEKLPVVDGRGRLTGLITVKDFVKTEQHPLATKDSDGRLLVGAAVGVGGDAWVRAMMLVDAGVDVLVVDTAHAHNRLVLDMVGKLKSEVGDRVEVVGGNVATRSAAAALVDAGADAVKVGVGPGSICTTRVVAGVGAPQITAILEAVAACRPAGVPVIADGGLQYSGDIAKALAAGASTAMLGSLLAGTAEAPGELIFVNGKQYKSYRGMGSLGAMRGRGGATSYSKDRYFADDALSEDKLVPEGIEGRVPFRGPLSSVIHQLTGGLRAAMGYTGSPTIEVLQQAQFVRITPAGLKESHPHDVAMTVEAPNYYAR

In the case of `Cc1n[nH]c(C)c1S(=O)(=O)Nc1ccc2c[nH]nc2c1`, the MIC in [1] came out at 2 µM (≈ 0.583 µg/mL).

Regarding `O=C(C1CCCCC1)N1CCN(S(=O)(=O)c2cccc3cnccc23)CC1`, the MIC in [2] worked out at 2 µM (≈ 0.775 µg/mL).

Regarding `C[C@@H](Oc1ccc(-c2ccn[nH]2)cc1)c1cncc(-c2nc(Cl)c[nH]2)c1`, the minimal inhibitory concentration (MIC) in data set [3] was determined as 0.11 µM (≈ 0.0402 µg/mL). Moreover, the CLhep predicted in data set [4] is 12 mL/min/kg. For the same molecule, the IC50 against Cytochrome P450 3A4 [5] is 0.24 µM.

Take `C[C@@H](Oc1ccc2c(=O)cc3n(c2c1)CCOC3)c1cc(-n2ccc(Cl)n2)cnn1`: in [3], the MIC came to 0.26 µM (≈ 0.11 µg/mL). Moreover, the CLhep predicted in [4] is 5.3 mL/min/kg. Besides, in data set [6], the clearance stood at 35 mL/min/kg. Moreover, the IC50 at Cytochrome P450 3A4 [7] is over 10 µM; against Cytochrome P450 1A2 it was over 10 µM; against Cytochrome P450 2C8, over 10 µM; against Cytochrome P450 2D6, over 10 µM; against Cytochrome P450 3A4 [5], over 10 µM; in data set [10], 0.0017 µM. In addition, the IC50 is over 50 µM with IMPDH, over 100 µM in data set [11] and over 100 µM in data set [12]. In addition, the logD in data set [8] was 2.3. The molecule also had an inhibition at 10 µM against hERG of 28%. In addition, the bioavailability in data set [9] worked out at 5.2%.

Consider `C[C@@H](Oc1ccc2ncc3c(c2c1)CCOC3)c1cncc(-c2nc(Cl)c[nH]2)c1`, for which the MIC was under 0.003 µM in data set [3] and 0.039 µM (≈ 0.0159 µg/mL) in data set [13]. Also, the CLhep predicted in data set [4] was 19 mL/min/kg. The IC50 is under 10 µM against Cytochrome P450 3A4 [7]; under 10 µM on Cytochrome P450 1A2; under 10 µM against Cytochrome P450 2C8; under 10 µM at Cytochrome P450 2C9; under 10 µM against Cytochrome P450 2D6; 0.57 µM against Cytochrome P450 3A4 [5].

Turning to `C[C@@H](Oc1ccc2c(=O)cc3n(c2c1)CCOC3)c1cncc(-c2nc(C(F)(F)F)c[nH]2)c1`, the MIC in data set [3] turned out to be 0.099 µM (≈ 0.0452 µg/mL). Besides, the CLhep predicted in [4] is 16 mL/min/kg. At Cytochrome P450 3A4 [5], this molecule displayed an IC50 of 4.3 µM. The logD in data set [8] came to 3.

For the molecule `C/C(=N/O)c1cccc(C(C)(C)NC(=O)Nc2ccc(Cl)c(C(=O)N(C)C)c2)c1`, the MIC in [14] is 16 µM (≈ 6.67 µg/mL).

Turning to `C[C@@H](Oc1ccc2c(=O)cc3n(c2c1)CCOC3)c1cncc(-c2nc(C#N)c[nH]2)c1`, the MIC in data set [3] worked out at 0.39 µM (≈ 0.161 µg/mL). In [4], the CLhep predicted is 5.5 mL/min/kg. Besides, the IC50 against Cytochrome P450 3A4 [5] was over 10 µM. This molecule had a logD in [8] of 2.1.

Consider `C[C@@H](Oc1cccc(-c2ccn[nH]2)c1)c1cncc(-c2nc(Cl)c[nH]2)c1`, for which, in data set [3], the MIC came to 3.1 µM (≈ 1.13 µg/mL). Moreover, the CLhep predicted in data set [4] was 16 mL/min/kg. For the same molecule, inhibition against Cytochrome P450 3A4 [5] was half-maximal at 0.32 µM (IC50).

`C[C@@H](Oc1cc(-c2ccn[nH]2)cc(N2CCOCC2)c1)c1cncc(-c2nc(Cl)c[nH]2)c1`: the MIC in [3] was 0.18 µM (≈ 0.0812 µg/mL). In addition, the CLhep predicted in data set [4] is 16 mL/min/kg.

On to `C[C@@H](Oc1ccc2c(=O)cc3n(c2c1)CCOC3)c1cncc(-n2ccc(C#N)n2)c1`, for which, in data set [3], the MIC was 0.18 µM (≈ 0.0744 µg/mL). Moreover, the CLhep predicted in data set [4] is 11 mL/min/kg. In data set [8], this molecule returned a logD of 1.7.

Take `C[C@H](Nc1ccc2ncc3c(c2c1)CCOC3)C(=O)Nc1ccc(Cl)nc1`: the MIC in data set [3] came out at 0.035 µM (≈ 0.0134 µg/mL); in [13], 0.058 µM (≈ 0.0222 µg/mL). The CLhep predicted in data set [4] is 16 mL/min/kg. Moreover, the clearance in [6] is 132 mL/min/kg.

Consider `C[C@@H](Oc1ccc2c(=O)cc3n(c2c1)CCOC3)c1cc(-n2ccc(C(F)(F)F)n2)cnn1`, for which the MIC in [3] came to 0.58 µM (≈ 0.265 µg/mL). In addition, the CLhep predicted in data set [4] is 7 mL/min/kg. In addition, on Cytochrome P450 3A4 [5], the IC50 was over 10 µM. For the same molecule, in [8], the logD stood at 2.1.

Turning to `C[C@@H](Oc1ccc2c(=O)cc3n(c2c1)CCOC3)c1cncc(-n2ccc(Cl)n2)c1`, the MIC in [3] stood at 0.091 µM (≈ 0.0385 µg/mL). In addition, the CLhep predicted in [4] was 16 mL/min/kg. The molecule further yielded an IC50 at Cytochrome P450 3A4 [5] of over 10 µM. For the same molecule, the logD in data set [8] came out at 2.8.

For the molecule `C[C@@H](Oc1ccc2c(=O)cc3n(c2c1)CCOC3)c1cc(-n2ccc(OC(F)F)n2)cnn1`, the MIC in data set [3] was found to be 0.29 µM (≈ 0.132 µg/mL). In addition, the CLhep predicted in data set [4] was under 3.9 mL/min/kg. For the same molecule, the IC50 against Cytochrome P450 3A4 [5] was over 10 µM. In data set [8], the logD was found to be 1.6. Also, at hERG, the inhibition at 10 µM came to 70%.

For the molecule `C[C@@H](Oc1ccc2ncc(CO)cc2c1)c1cncc(-c2nc(Cl)c[nH]2)c1`, the MIC in data set [3] came to 0.007 µM (≈ 0.00267 µg/mL). Moreover, the CLhep predicted in data set [4] was 12 mL/min/kg. Further, on Cytochrome P450 3A4 [5], the IC50 turned out to be 2.1 µM.

For `C[C@@H](Oc1ccc2c(=O)cc3n(c2c1)CCOC3)c1cncc(-n2ccc(C(F)(F)F)n2)c1`, the MIC in data set [3] stood at 0.29 µM (≈ 0.132 µg/mL). The CLhep predicted in data set [4] was 18 mL/min/kg. The same molecule showed an IC50 against Cytochrome P450 3A4 [5] of over 10 µM. This molecule also showed a log distribution coefficient (logD) in data set [8] of 3.1.

On to `CC(Oc1ccc2c(=O)cc3n(c2c1)CCOC3)c1cncc(-c2nc(Cl)c[nH]2)c1` (racemic), for which the MIC in data set [3] stood at 0.12 µM (≈ 0.0507 µg/mL). In addition, the CLhep predicted in data set [4] is 13 mL/min/kg. Further, inhibition against Cytochrome P450 3A4 [5] was half-maximal at 3.7 µM (IC50). The logD in [8] was 2.2.
